From patent publication US10611740B2, “Aryl dihydro-2H-benzo[b][1,4]oxazine sulfonamide and related compounds for use as agonists of RORγ and the treatment of disease” (Lycera Corporation, priority 2015, dated 2020) come the findings set out here.

As a reminder, the pEC50 is the negative decadic logarithm of the EC50, by convention in mol/L.

pEC50: −log10 of the molar value.

In assay [1] the target is T1, Gal4-RORγ-LBD (Homo sapiens, UniProt P51449).
T1 construct: expressed in transfected cells; host or cells: HEK-293 cells (pcDNA3.1neo plasmid)
T1 sequence (P51449 269-508 limits assumed): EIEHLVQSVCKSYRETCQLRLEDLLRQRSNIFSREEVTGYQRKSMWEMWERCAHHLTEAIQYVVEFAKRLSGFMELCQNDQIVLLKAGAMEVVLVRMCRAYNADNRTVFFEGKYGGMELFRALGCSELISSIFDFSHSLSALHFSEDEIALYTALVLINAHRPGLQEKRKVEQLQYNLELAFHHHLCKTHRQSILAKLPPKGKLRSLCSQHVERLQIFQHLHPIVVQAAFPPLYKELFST
As to the kind of experiment: Gal4-RORγ Luciferase Reporter Assay in HEK-293T Cells. The class given is cell-based. Conditions: HEK-293 cells. Summed up: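 HEK-293 cells were transiently co-transfected with Gal4-RORγ-LBD and pGL4.31 Gal4-luciferase, with ursolic acid added at 2 μM final. Compounds were incubated overnight at 37° C. in 0.2% DMSO and luminescence read with One-Glo. Max Response is the upper plateau of a 4-parameter logistic fit, with signal lacking ursolic acid or compound set to 100.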

For assay [2], the target named is T2, RORγ-LBD (Homo sapiens, UniProt P51449).
T2 construct: made in house; host or cells: SF9 cells (baculovirus)
T2 sequence (P51449 269-508 limits assumed): T1 sequence (P51449 269-508 limits assumed)
Nature of the assay: RORγ-Ligand Binding Domain (LBD) TR-FRET Assay.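 As to TR-FRET Assay Max Response: 665/615 nm ratio relative to signal without ursolic acid or compound set at 100.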 The assay is classed as biochemical. Summed up:
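Compounds, diluted in DMSO and then in assay buffer (1% DMSO final), were combined with His-tagged RORγ-LBD lysate at roughly 3 nM final and a 200 nM biotinylated SRC1 LXXLL peptide. Ursolic acid was included at 2 μM final. Coactivator recruitment was detected by TR-FRET.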

[3] abbreviates: luciferase reporter, with 2 μM ursolic acid.

`Cc1cc(C)cc(-c2ccc3c(c2)N(S(=O)(=O)c2cccc(C(F)(F)F)c2)C[C@H](CC(C)(C)C(=O)O)O3)c1` [Compound 32AS, (S)-3-(6-(3,5-dimethylphenyl)-4-((3-(trifluoromethyl)phenyl)-sulfonyl)-3,4-dihydro-2H-benzo[b][1,4]oxazin-2-yl)-2,2-dimethylpropanoic acid]: in assay [1] (2 μM ursolic acid), the negative logarithm of the EC50 (pEC50) is greater than 6.30 and the “Gal4-RORγ Assay Max Response” value is recorded as “** (The symbol “**” indicates a value in the range of greater than 90 to 150)”. In addition, in assay [2], the pEC50 was greater than 6.30 and the “TR-FRET Assay Max Response” value is “** (The symbol “**” indicates a value in the range of greater than 90 to 150)”.
For `Cc1ccc(C)c(-c2ccc3c(c2)N(S(=O)(=O)c2cccc(C(F)(F)F)c2)C[C@H](CC(C)(C)C(=O)O)O3)c1` [Compound 32AT, (S)-3-(6-(2,5-dimethylphenyl)-4-((3-(trifluoromethyl)phenyl)-sulfonyl)-3,4-dihydro-2H-benzo[b][1,4]oxazin-2-yl)-2,2-dimethylpropanoic acid], in assay [1] (2 μM ursolic acid), the negative-log EC50 (pEC50) is greater than 6.30 and the “Gal4-RORγ Assay Max Response” value is given as “** (The symbol “**” indicates a value in the range of greater than 90 to 150)”. Besides, in assay [2], the negative-log EC50 (pEC50) was greater than 6.30 and the “TR-FRET Assay Max Response” value is reported as “** (The symbol “**” indicates a value in the range of greater than 90 to 150)”.
As to `CC(C)(C[C@H]1CN(S(=O)(=O)c2cccc(C(F)(F)F)c2)c2cc(-c3c(Cl)cccc3Cl)ccc2O1)C(=O)O` [Compound 32AU, (S)-3-(6-(2,6-dichlorophenyl)-4-((3-(trifluoromethyl)phenyl)-sulfonyl)-3,4-dihydro-2H-benzo[b][1,4]oxazin-2-yl)-2,2-dimethylpropanoic acid], in assay [1] (2 μM ursolic acid), the pEC50 is greater than 6.30 and the “Gal4-RORγ Assay Max Response” value is “** (The symbol “**” indicates a value in the range of greater than 90 to 150)”. In assay [2], the pEC50 is greater than 6.30 and the “TR-FRET Assay Max Response” value is “** (The symbol “**” indicates a value in the range of greater than 90 to 150)”.
Take `CC(C)(C[C@H]1CN(S(=O)(=O)c2cccc(C(F)(F)F)c2)c2cc(-c3cc(F)ccc3C(F)(F)F)ccc2O1)C(=O)O` [Compound 32AV, (S)-3-(6-(5-fluoro-2-(trifluoro-methyl)phenyl)-4-((3-(trifluoro-methyl)phenyl)sulfonyl)-3,4-dihydro-2H-benzo[b][1,4]oxazin-2-yl)-2,2-dimethylpropanoic acid]: in assay [1] (2 μM ursolic acid), the pEC50 was greater than 6.30 and the “Gal4-RORγ Assay Max Response” value is recorded as “** (The symbol “**” indicates a value in the range of greater than 90 to 150)”. In addition, in assay [2], the pEC50 is greater than 6.30 and the “TR-FRET Assay Max Response” value is recorded as “** (The symbol “**” indicates a value in the range of greater than 90 to 150)”.
Turning to `CC(C)(C[C@H]1CN(S(=O)(=O)c2cccc(C(F)(F)F)c2)c2cc(-c3cc(Cl)cc(F)c3Cl)ccc2O1)C(=O)O` [Compound 32AW, (S)-3-(6-(2,5-dichloro-3-fluoro-phenyl)-4-((3-(trifluoromethyl)-phenyl)sulfonyl)-3,4-dihydro-2H-benzo[b][1,4]oxazin-2-yl)-2,2-dimethylpropanoic acid], in assay [1] (2 μM ursolic acid), the negative-log EC50 (pEC50) was greater than 6.30 and the “Gal4-RORγ Assay Max Response” value is reported as “** (The symbol “**” indicates a value in the range of greater than 90 to 150)”. In assay [2], the pEC50 was greater than 6.30 and the “TR-FRET Assay Max Response” value is “** (The symbol “**” indicates a value in the range of greater than 90 to 150)”.
Take `Cc1cccc(-c2ccc3c(c2)N(S(=O)(=O)c2cccc(C(F)(F)F)c2)C[C@H](CC(C)(C)C(=O)O)O3)c1Cl` [Compound 32AX, (S)-3-(6-(2-chloro-3-methyl-phenyl)-4-((3-(trifluoromethyl)-phenyl)sulfonyl)-3,4-dihydro-2H-benzo[b][1,4]oxazin-2-yl)-2,2-dimethylpropanoic acid]: in assay [1] (2 μM ursolic acid), the negative-log EC50 (pEC50) was greater than 6.30 and the “Gal4-RORγ Assay Max Response” value is “** (The symbol “**” indicates a value in the range of greater than 90 to 150)”. Further, in assay [2], the pEC50 is greater than 6.30 and the “TR-FRET Assay Max Response” value is given as “** (The symbol “**” indicates a value in the range of greater than 90 to 150)”.
Turning to `Cc1c(Cl)cccc1-c1ccc2c(c1)N(S(=O)(=O)c1cccc(C(F)(F)F)c1)C[C@H](CC(C)(C)C(=O)O)O2` [Compound 32AZ, (S)-3-(6-(3-chloro-2-methyl-phenyl)-4-((3-(trifluoromethyl)-phenyl)sulfonyl)-3,4-dihydro-2H-benzo[b][1,4]oxazin-2-yl)-2,2-dimethylpropanoic acid], in assay [1] (2 μM ursolic acid), the pEC50 is greater than 6.30 and the “Gal4-RORγ Assay Max Response” value is recorded as “** (The symbol “**” indicates a value in the range of greater than 90 to 150)”. In assay [2], the negative logarithm of the EC50 (pEC50) is greater than 6.30 and the “TR-FRET Assay Max Response” value was “** (The symbol “**” indicates a value in the range of greater than 90 to 150)”.
Consider `COc1cccc(-c2ccc3c(c2)N(S(=O)(=O)c2cccc(C(F)(F)F)c2)C[C@H](CC(C)(C)C(=O)O)O3)c1` [Compound 32B, (S)-3-(6-(3-methoxyphenyl)-4-((3-(trifluoromethyl)phenyl)sulfonyl)-3,4-dihydro-2H-benzo[b][1,4]oxazin-2-yl)-2,2-dimethylpropanoic acid], for which, in assay [1] (setting [3]), the pEC50 is greater than 6.30 and the “Gal4-RORγ Assay Max Response” value was “** (The symbol “**” indicates a value in the range of greater than 90 to 150)”. In assay [2], the pEC50 is greater than 6.30 and the “TR-FRET Assay Max Response” value is recorded as “*** (The symbol “***” indicates a value in the range of greater than 150 to 200)”.
Turning to `Cc1cccc(C)c1-c1ccc2c(c1)N(S(=O)(=O)c1cccc(C(F)(F)F)c1)C[C@H](CC(C)(C)C(=O)O)O2` [Compound 32BA, (S)-3-(6-(2,6-dimethylphenyl)-4-((3-(trifluoromethyl)phenyl)-sulfonyl)-3,4-dihydro-2H-benzo[b][1,4]oxazin-2-yl)-2,2-dimethylpropanoic acid], in assay [1] (2 μM ursolic acid), the pEC50 was 5.30 to 6.30 and the “Gal4-RORγ Assay Max Response” value is given as “** (The symbol “**” indicates a value in the range of greater than 90 to 150)”. For the same compound, in assay [2], the pEC50 was greater than 6.30 and the “TR-FRET Assay Max Response” value was “*** (The symbol “***” indicates a value in the range of greater than 150 to 200)”.
Regarding `Cc1cc(Cl)cc(-c2ccc3c(c2)N(S(=O)(=O)c2cccc(C(F)(F)F)c2)C[C@H](CC(C)(C)C(=O)O)O3)c1` [Compound 32BB, (S)-3-(6-(3-chloro-5-methyl-phenyl)-4-((3-(trifluoromethyl)-phenyl)sulfonyl)-3,4-dihydro-2H-benzo[b][1,4]oxazin-2-yl)-2,2-dimethylpropanoic acid], in assay [1] (2 μM ursolic acid), the negative logarithm of the EC50 (pEC50) was greater than 6.30 and the “Gal4-RORγ Assay Max Response” value is given as “** (The symbol “**” indicates a value in the range of greater than 90 to 150)”. In assay [2], the pEC50 is greater than 6.30 and the “TR-FRET Assay Max Response” value was “* (The symbol “*” indicates a value in the range of 25 to 90)”.
Regarding `CC(C)(C[C@H]1CN(S(=O)(=O)c2cccc(C(F)(F)F)c2)c2cc(-c3cccc(F)c3C(F)(F)F)ccc2O1)C(=O)O` [Compound 32BC, (S)-3-(6-(3-fluoro-2-(trifluoromethyl)phenyl)-4-((3-(trifluoromethyl)phenyl)sulfonyl)-3,4-dihydro-2H-benzo[b][1,4]oxazin-2-yl)-2,2-dimethylpropanoic acid], in assay [1] (2 μM ursolic acid), the pEC50 was greater than 6.30 and the “Gal4-RORγ Assay Max Response” value is listed as “** (The symbol “**” indicates a value in the range of greater than 90 to 150)”. In assay [2], the pEC50 was greater than 6.30 and the “TR-FRET Assay Max Response” value is on record as “** (The symbol “**” indicates a value in the range of greater than 90 to 150)”.
Consider `O=C(O)C1(C[C@H]2CN(S(=O)(=O)c3cccc(C(F)(F)F)c3)c3cc(-c4cc(F)cc(F)c4)ccc3O2)CCC1` [Compound 32BD, (S)-1-((6-(3,5-difluorophenyl)-4-((3-(trifluoromethyl)phenyl)-sulfonyl)-3,4-dihydro-2H-benzo[b][1,4]oxazin-2-yl)methyl)cyclobutane-1-carboxylic acid], for which, in assay [1] (2 μM ursolic acid), the negative logarithm of the EC50 (pEC50) was greater than 6.30 and the “Gal4-RORγ Assay Max Response” value is recorded as “** (The symbol “**” indicates a value in the range of greater than 90 to 150)”. In assay [2], the pEC50 is greater than 6.30 and the “TR-FRET Assay Max Response” value is on record as “** (The symbol “**” indicates a value in the range of greater than 90 to 150)”.
With `O=C(O)C1(C[C@H]2CN(S(=O)(=O)c3cccc(C(F)(F)F)c3)c3cc(-c4cc(F)ccc4F)ccc3O2)CCC1` [Compound 32BE, (S)-1-((6-(2,5-difluorophenyl)-4-((3-(trifluoromethyl)phenyl)-sulfonyl)-3,4-dihydro-2H-benzo[b][1,4]oxazin-2-yl)methyl)cyclobutane-1-carboxylic acid], in assay [1] (2 μM ursolic acid), the pEC50 is greater than 6.30 and the “Gal4-RORγ Assay Max Response” value is given as “** (The symbol “**” indicates a value in the range of greater than 90 to 150)”. In assay [2], the negative-log EC50 (pEC50) was greater than 6.30 and the “TR-FRET Assay Max Response” value was “** (The symbol “**” indicates a value in the range of greater than 90 to 150)”.
